# In publication PMC6425950 (Bioorganic & medicinal chemistry, 2019):
# Tested on: HCV genotype 1b RNA replication in Huh-7 cells (subgenomic HCV replicon)
# Assay: HCV subgenomic replicon assay, inhibition of HCV RNA replication
# Type: cell-based, Hepatitis C virus
# Conditions: for EC90: Hepatitis C virus, GETYPE1B, Huh-7, read-out: Anti-HCV activity EC90; for anti-HCV activity: none at concentration up to: HCV genotype 1b replicon, Huh-7 cells; for anti-HCV activity (in words): HCV replicon, statement in conclusion
compound,measurement,value
"Nc1ccn([C@@H]2O[C@H](CO)[C@@H](O)[C@@]2(F)Cl)c(=O)n1 [Compound 26, 4-Amino-1-((2R,3R,4R,5R)-3-chloro-3-fluoro-4-hydroxy-5-(hydroxymethyl)tetrahydrofuran-2-yl)pyrimidin-2(1H)-one]",EC90,> 10 µM
"Nc1ncnc2c1ncn2[C@@H]1O[C@H](CO)[C@@H](O)[C@@]1(F)Br [Compound 41, (2R, 3R, 4R, 5R)-5-(6-Amino-9H-purin-9-yl)-4-bromo-4-fluoro-2-(hydroxymethyl)tetrahydrofuran-3-ol]",EC90,> 10 µM
"Nc1ncnc2c1ncn2[C@@H]1O[C@H](CO)[C@@H](O)[C@@]1(F)Cl [Compound 40, (2R, 3R, 4R, 5R)-5-(6-Amino-9H-purin-9-yl)-4-chloro-4-fluoro-2-(hydroxymethyl)tetrahydrofuran-3-ol]",EC90,> 10 µM
"CC(C)OC(=O)[C@H](C)N[P@](=O)(OC[C@H]1O[C@@H](n2cnc3c(=O)[nH]c(N)nc32)[C@](F)(Br)[C@@H]1O)Oc1ccccc1 [Compound 51, Isopropyl ((((2R,3R,4R,5R)-5-(2-amino-6-oxo-1,6-dihydro-9H-purin-9-yl)-4-bromo-4-fluoro-3-hydroxytetrahydrofuran-2-yl)methoxy)(phenoxy)phosphoryl)-L-alaninate]",anti-HCV activity: none at concentration up to,> 10 µM
"Nc1nc2c(ncn2[C@@H]2O[C@H](CO)[C@@H](O)[C@@]2(F)Cl)c(=O)[nH]1 [Compound 48, 2-Amino-9-((2R,3R,4R,5R)-3-chloro-3-fluoro-4-hydroxy-5-(hydroxymethyl)tetrahydrofuran-2-yl)-1,9-dihydro-6H-purin-6-one]",anti-HCV activity: none at concentration up to,> 10 µM
"CC(C)OC(=O)[C@H](C)NP(=O)(OC[C@H]1O[C@@H](n2ccc(N)nc2=O)[C@](F)(Cl)[C@@H]1O)Oc1ccccc1 (stereo partly drawn) [Compound 35, Isopropyl ((((2R,3R,4R,5R)-5-(4-amino-2-oxopyrimidin-1(2H)-yl)-4-chloro-4-fluoro-3-hydroxytetrahydrofuran-2-yl)methoxy) (phenoxy)phosphoryl)-L-alaninate]",anti-HCV activity (in words),low to sub-micromolar range
"CC(C)OC(=O)[C@H](C)NP(=O)(OC[C@H]1O[C@@H](n2cnc3c(=O)[nH]c(N)nc32)[C@](F)(Cl)[C@@H]1O)Oc1ccccc1 (stereo partly drawn) [Compound 50, Isopropyl ((((2R,3R,4R,5R)-5-(2-amino-6-oxo-1,6-dihydro-9H-purin-9-yl)-4-chloro-4-fluoro-3-hydroxytetrahydrofuran-2-yl)methoxy)(phenoxy)phosphoryl)-L-alaninate]",anti-HCV activity: none at concentration up to,> 10 µM
same,EC90,> 10 µM
"Nc1nc2c(ncn2[C@@H]2O[C@H](CO)[C@@H](O)[C@@]2(F)Br)c(=O)[nH]1 [Compound 49, 2-amino-9-((2R,3R,4R,5R)-3-bromo-3-fluoro-4-hydroxy-5-(hydroxymethyl)tetrahydrofuran-2-yl)-1,9-dihydro-6H-purin-6-one]",anti-HCV activity: none at concentration up to,> 10 µM
same,EC90,> 10 µM
"Nc1ccn([C@@H]2O[C@H](CO)[C@@H](O)[C@@]2(F)Br)c(=O)n1 [Compound 27, 4-Amino-1-((2R,3R,4R, 5R)-3-bromo-3-fluoro-4-hydroxy-5-(hydroxymethyl)tetrahydrofuran-2-yl)pyrimidin-2(lH)-one]",anti-HCV activity (in words),low to sub-micromolar range
"CC(C)OC(=O)[C@H](C)NP(=O)(OC[C@H]1O[C@@H](n2cnc3c(N)ncnc32)[C@](F)(Cl)[C@@H]1O)Oc1ccccc1 (stereo partly drawn) [Compound 42, Isopropyl ((((2R,3R,4R,5R)-5-(6-amino-9H-purin-9-yl)-4-chloro-4-fluoro-3-hydroxytetrahydrofuran-2-yl)methoxy) (phenoxy)phosphoryl)-L-alaninate]",anti-HCV activity (in words),low to sub-micromolar range
"CC(C)OC(=O)[C@H](C)NP(=O)(OC[C@H]1O[C@@H](n2ccc(N)nc2=O)[C@](F)(Br)[C@@H]1O)Oc1ccccc1 (stereo partly drawn) [Compound 32, Isopropyl ((((2R,3R,4R,5R)-5-(4-amino-2-oxopyrimidin-1(2H)-yl)-4-bromo-4-fluoro-3-hydroxytetrahydrofuran-2-yl)methoxy)(phenoxy)phosphoryl)-L-alaninate]",anti-HCV activity (in words),low to sub-micromolar range
"CC(C)OC(=O)[C@H](C)NP(=O)(OC[C@H]1O[C@@H](n2ccc(=O)[nH]c2=O)[C@](F)(Cl)[C@@H]1O)Oc1ccccc1 (stereo partly drawn) [Compound 19, Isopropyl ((((2R,3R,4R,5R)-4-chloro-5-(2,4-dioxo-3,4-dihydropyrimidin-1(2H)-yl)-4-fluoro-3-hydroxytetrahydrofuran-2-yl)methoxy)(phenoxy)phosphoryl)-L-alaninate]",anti-HCV activity (in words),low to sub-micromolar range
"CC(C)OC(=O)[C@H](C)NP(=O)(OC[C@H]1O[C@@H](n2cnc3c(N)ncnc32)[C@](F)(Br)[C@@H]1O)Oc1ccccc1 (stereo partly drawn) [Compound 43, Isopropyl ((((2R,3R,4R,5R)-5-(6-amino-9H-purin-9-yl)-4-bromo-4-fluoro-3-hydroxytetrahydrofuran-2-yl)methoxy)(phenoxy)phosphoryl)-L-alaninate]",EC90,> 10 µM
"CC(C)OC(=O)[C@H](C)NP(=O)(OC[C@H]1O[C@@H](n2ccc(=O)[nH]c2=O)[C@](F)(Br)[C@@H]1O)Oc1ccccc1 (stereo partly drawn) [Compound 20, Isopropyl ((((2R,3R,4R,5R)-4-bromo-5-(2,4-dioxo-3,4-dihydropyrimidin-1(2H)-yl)-4-fluoro-3-hydroxytetrahydrofuran-2-yl)methoxy)(phenoxy)phosphoryl)-L-alaninate]",anti-HCV activity (in words),low to sub-micromolar range
